Common to all, as to assay type: functional
Assay [1] concerns the target T1, Cdk-related protein kinase 6 (Plasmodium falciparum, UniProt O77239).
T1 sequence (O77239 whole entry): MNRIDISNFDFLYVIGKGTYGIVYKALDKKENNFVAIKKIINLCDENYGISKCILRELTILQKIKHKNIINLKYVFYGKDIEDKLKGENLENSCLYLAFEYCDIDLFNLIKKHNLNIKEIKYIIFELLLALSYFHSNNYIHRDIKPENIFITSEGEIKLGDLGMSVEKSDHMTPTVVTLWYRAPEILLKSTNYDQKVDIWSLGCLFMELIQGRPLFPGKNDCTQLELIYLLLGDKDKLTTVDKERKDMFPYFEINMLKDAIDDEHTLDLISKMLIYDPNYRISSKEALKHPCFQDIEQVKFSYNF
Description: Final concentrations were 1.5 uM ATP, 5 mM MnCl2, and 15 ug/ml PK6 in a buffer of 100 mM Tris-HCl (pH 7.5). 50 ug/mL MBP was provided as the substrate; 10 uM staurosporine was used as a control inhibitor. Incubation time was 3 hours and 40 minutes.The catalytic activity of each kinase was considered proportional to ATP consumed, as determined from measurements of residual [ATP] with the luciferase-based reagent Kinase-Glo (Promega) following incubation. Luminescence (proportional to residual [ATP]) was measured on the plate readers FLx800 (BioTek Instruments, Winooski, VT, USA) and MicroBeta2. On the technique in general: Kinase-Glo reads ATP consumption through a luciferase reaction.

Assay [2] has as its target T2, Putative uncharacterized protein pk7 (Plasmodium falciparum, UniProt O96214).
T2 sequence (O96214 whole entry): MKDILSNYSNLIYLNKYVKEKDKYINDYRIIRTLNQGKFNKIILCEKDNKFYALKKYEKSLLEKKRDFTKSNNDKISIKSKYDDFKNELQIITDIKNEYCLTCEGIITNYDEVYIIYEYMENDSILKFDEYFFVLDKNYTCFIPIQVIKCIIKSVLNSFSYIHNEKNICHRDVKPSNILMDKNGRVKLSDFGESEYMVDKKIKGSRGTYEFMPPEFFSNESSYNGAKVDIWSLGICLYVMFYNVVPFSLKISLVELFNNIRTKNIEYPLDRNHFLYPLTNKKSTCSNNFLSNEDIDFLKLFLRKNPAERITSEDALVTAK
Description: Final concentrations were 1 uM ATP, 2 mM DTT, 20 mM MgCl2, 2 mM MnCl2, 0.01% BSA, and 6 ug/ml PK7, in a buffer of 20 mM Tris-HCl (pH 7.5). The enzyme itself was the only substrate present (since autophosphorylation occurs); 100 uM 1NA-PP1 was used as a control inhibitor. Incubation time was 3 hours.

For assay [3], the target named is T3, Mitogen-activated protein kinase (Plasmodium falciparum, UniProt Q25917).
T3 sequence (Q25917 whole entry): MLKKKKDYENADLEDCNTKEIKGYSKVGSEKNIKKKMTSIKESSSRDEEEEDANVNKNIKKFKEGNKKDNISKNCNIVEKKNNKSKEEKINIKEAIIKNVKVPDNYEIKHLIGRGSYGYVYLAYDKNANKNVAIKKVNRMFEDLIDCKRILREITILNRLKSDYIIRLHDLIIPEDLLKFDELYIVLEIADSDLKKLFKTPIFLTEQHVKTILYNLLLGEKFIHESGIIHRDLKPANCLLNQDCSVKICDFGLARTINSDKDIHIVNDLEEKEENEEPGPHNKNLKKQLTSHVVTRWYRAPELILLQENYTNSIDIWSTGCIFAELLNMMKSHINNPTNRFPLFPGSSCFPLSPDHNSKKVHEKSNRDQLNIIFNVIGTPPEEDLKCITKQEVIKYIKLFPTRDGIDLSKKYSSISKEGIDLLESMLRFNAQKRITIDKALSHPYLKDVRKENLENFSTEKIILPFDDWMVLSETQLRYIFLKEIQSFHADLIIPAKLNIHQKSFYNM
Description: Final concentrations were 1 uM ATP, 0.5 mM DTT, 1 mM MgCl2, 0.5 mg/mL BSA, and 10 ug/ml MAP2 in a buffer of 50 mM HEPES (pH 7.0). 0.5 mg/mL histone III-S served as the substrate (13); 100 uM AMP-PNP, an ATP analog, was used as a control inhibitor. Incubation time was 4 hours.

In assay [4] the target is Calcium-dependent protein kinase 1 (Plasmodium falciparum, UniProt P62344). Description: MMV: CDPK1 Protein kinase inhibition assay using recombinant PfCDPK1, syntide 2 peptide substrate, ATP and KinaseGlo to measure % inhibition at 1 uM MMV box compound.
Sequence of Calcium-dependent protein kinase 1 (P62344 whole entry): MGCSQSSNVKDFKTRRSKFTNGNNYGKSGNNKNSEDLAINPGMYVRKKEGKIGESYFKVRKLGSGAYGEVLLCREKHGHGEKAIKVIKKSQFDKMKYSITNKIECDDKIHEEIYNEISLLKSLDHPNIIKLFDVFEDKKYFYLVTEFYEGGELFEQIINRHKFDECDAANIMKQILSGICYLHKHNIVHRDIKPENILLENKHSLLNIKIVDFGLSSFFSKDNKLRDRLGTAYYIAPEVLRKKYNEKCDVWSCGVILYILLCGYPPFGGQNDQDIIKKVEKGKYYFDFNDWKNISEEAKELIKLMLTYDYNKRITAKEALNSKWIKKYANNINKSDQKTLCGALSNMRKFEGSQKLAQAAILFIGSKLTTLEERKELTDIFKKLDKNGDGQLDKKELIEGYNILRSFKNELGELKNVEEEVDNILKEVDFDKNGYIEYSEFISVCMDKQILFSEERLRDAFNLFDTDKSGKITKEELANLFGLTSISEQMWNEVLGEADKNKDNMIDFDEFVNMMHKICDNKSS
For assay [5], the target named is T4, Calcium-dependent protein kinase 4 (Plasmodium falciparum (isolate 3D7), UniProt Q8IBS5).
T4 sequence (Q8IBS5 whole entry): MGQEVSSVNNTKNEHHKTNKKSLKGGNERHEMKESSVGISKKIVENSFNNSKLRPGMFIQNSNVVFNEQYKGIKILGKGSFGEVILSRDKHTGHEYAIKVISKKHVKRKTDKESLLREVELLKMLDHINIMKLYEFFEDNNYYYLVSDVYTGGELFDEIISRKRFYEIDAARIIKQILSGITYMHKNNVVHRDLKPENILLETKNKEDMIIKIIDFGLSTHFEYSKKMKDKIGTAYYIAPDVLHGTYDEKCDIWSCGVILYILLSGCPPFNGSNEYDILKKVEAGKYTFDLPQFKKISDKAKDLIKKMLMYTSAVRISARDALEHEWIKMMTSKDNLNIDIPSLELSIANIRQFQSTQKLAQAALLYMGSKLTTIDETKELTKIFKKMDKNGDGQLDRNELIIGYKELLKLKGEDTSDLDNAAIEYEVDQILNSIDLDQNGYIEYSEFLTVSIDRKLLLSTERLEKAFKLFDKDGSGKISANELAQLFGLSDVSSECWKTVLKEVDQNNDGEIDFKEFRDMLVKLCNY
Description: MMV: CDPK4 Protein kinase inhibition assay using recombinant PfCDPK4, syntide2 peptide substrate, ATP and KinaseGlo to measure % inhibition at 1 uM MMV box compound.

In another assay the target is T5, Proline--tRNA ligase (Plasmodium falciparum (isolate 3D7), UniProt Q8I5R7).
T5 sequence (Q8I5R7 whole entry): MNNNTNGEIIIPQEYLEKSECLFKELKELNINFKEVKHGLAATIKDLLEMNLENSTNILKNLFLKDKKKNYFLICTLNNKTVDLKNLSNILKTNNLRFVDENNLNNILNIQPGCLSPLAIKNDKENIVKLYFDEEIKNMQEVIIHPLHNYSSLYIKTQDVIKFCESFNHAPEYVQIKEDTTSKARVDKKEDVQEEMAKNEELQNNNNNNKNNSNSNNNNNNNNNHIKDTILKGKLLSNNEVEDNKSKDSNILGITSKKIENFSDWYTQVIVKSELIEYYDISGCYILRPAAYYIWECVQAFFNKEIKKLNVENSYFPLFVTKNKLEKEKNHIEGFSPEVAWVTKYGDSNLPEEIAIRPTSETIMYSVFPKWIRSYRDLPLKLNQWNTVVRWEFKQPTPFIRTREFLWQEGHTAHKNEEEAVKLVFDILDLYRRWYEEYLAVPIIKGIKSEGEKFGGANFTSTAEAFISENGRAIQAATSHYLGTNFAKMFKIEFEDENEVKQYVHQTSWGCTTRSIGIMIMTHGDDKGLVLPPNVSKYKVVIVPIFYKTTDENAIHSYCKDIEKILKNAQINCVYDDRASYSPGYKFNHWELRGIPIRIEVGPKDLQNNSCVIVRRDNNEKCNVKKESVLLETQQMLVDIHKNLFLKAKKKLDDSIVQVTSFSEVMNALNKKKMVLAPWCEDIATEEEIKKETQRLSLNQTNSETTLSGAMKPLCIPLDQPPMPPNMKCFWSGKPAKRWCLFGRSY
Description: MMV: ProRS recombinant Plasmodium falciparum Prolyl-tRNA-synthetase, assay with yeast tRNA, ATP, and proline and 3 uM MMV malaria box compound, assay read out with kinase glo as % inhibition.

The target in the next assay is Lysine--tRNA ligase (Plasmodium falciparum (isolate 3D7), UniProt Q8IDJ8). Description: MMV: KRS recombinant Plasmodium falciparum Lysyl-tRNA-synthetase, assay with yeast tRNA, ATP, and lysine and 3 uM MMV malaria box compound, assay read out with kinase glo as % inhibition.
Sequence of Lysine--tRNA ligase (Q8IDJ8 whole entry): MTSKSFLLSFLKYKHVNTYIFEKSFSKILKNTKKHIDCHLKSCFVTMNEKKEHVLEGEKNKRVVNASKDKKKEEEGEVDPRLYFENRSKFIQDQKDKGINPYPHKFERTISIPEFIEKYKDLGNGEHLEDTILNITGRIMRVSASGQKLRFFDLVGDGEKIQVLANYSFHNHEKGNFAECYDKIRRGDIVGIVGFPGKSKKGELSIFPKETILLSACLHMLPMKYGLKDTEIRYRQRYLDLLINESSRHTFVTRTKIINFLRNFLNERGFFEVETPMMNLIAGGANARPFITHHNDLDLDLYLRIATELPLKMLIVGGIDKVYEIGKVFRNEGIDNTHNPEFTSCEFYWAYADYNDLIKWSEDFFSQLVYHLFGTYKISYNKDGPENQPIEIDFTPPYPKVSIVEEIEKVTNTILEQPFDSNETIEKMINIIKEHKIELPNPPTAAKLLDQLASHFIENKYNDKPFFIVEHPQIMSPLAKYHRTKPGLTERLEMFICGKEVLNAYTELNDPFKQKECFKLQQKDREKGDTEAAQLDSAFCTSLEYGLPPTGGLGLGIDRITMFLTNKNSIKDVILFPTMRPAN

For `OCCNc1nc(Nc2ccc(Cl)c(Cl)c2)nc2ccccc12`, the IC50 (usually the concentration that inhibits the measured activity by half) is more than 1 µM in assay [1]; more than 1 µM in assay [2]; more than 1 µM in assay [3]; more than 1 µM in assay [4]; more than 1 µM in assay [5]; more than 2.5 µM on Proline--tRNA ligase. Besides, on Lysine--tRNA ligase, the IC50 was more than 2.5 µM.

For the compound `Cc1ccnc(NC(c2cccc(OCc3ccccc3)c2)c2ccc3cccnc3c2O)c1` (stereo not drawn), the IC50 in assay [1] is more than 1 µM; in assay [2], more than 1 µM; in assay [3], more than 1 µM; in assay [4], more than 1 µM; in assay [5], more than 1 µM; at Proline--tRNA ligase it was more than 2.5 µM. Besides, on Lysine--tRNA ligase, the IC50 is more than 2.5 µM.

On to `Nc1ccc(-c2nc3cc(Oc4ccc(Oc5ccc6[nH]c(-c7ccc(N)cc7)nc6c5)cc4)ccc3[nH]2)cc1`, for which the IC50 in assay [1] was more than 1 µM; in assay [2], more than 1 µM; in assay [3], more than 1 µM; in assay [4], more than 1 µM; in assay [5] it was more than 1 µM; at Proline--tRNA ligase, more than 2.5 µM. In addition, the IC50 on Lysine--tRNA ligase was more than 2.5 µM.

As for `Oc1ccc(Br)cc1CN1CCN(Cc2ccc(Cl)cc2)CC1`, the IC50 in assay [1] is more than 1 µM; in assay [2], more than 1 µM; in assay [3] it was more than 1 µM; in assay [4], more than 1 µM; in assay [5], more than 1 µM; on Proline--tRNA ligase, more than 2.5 µM. Also, the IC50 at Lysine--tRNA ligase was more than 2.5 µM.

With `CCN(CC)S(=O)(=O)c1ccc(-c2csc(Nc3ccc(C)c(C)c3)n2)cc1`, the IC50 in assay [1] is more than 1 µM; in assay [2], more than 1 µM; in assay [3], more than 1 µM; in assay [4] it was more than 1 µM; in assay [5], more than 1 µM; on Proline--tRNA ligase it was more than 2.5 µM. Besides, the IC50 on Lysine--tRNA ligase is more than 2.5 µM.

In the case of `O=C1c2ccc3c4c(ccc(c24)C(=O)N1CCCCO)C(=O)N(CCCCO)C3=O`, the IC50 is more than 1 µM in assay [1]; more than 1 µM in assay [2]; more than 1 µM in assay [3]; more than 1 µM in assay [4]; more than 1 µM in assay [5]; more than 2.5 µM on Proline--tRNA ligase. Besides, the IC50 at Lysine--tRNA ligase is more than 2.5 µM.

On to `Cc1ccc(-c2cc3c(nn2)-c2ccccc2C3=O)cc1`, for which the IC50 in assay [1] is more than 1 µM; in assay [2], more than 1 µM; in assay [3], more than 1 µM; in assay [4], more than 1 µM; in assay [5], more than 1 µM; at Proline--tRNA ligase, more than 2.5 µM. Also, at Lysine--tRNA ligase, the IC50 was more than 2.5 µM.

`Cc1ccc(C(=O)c2oc3ccc4c(C)cc(=O)oc4c3c2C)cc1`: the IC50 was more than 1 µM in assay [1]; more than 1 µM in assay [2]; more than 1 µM in assay [3]; more than 1 µM in assay [4]; more than 1 µM in assay [5]; more than 2.5 µM on Proline--tRNA ligase. Also, the IC50 on Lysine--tRNA ligase is more than 2.5 µM.

As to `CCC(O)c1ccc(Br)cc1NC(=O)c1cccc(Cl)c1` (stereo not drawn), the IC50 in assay [1] was more than 1 µM; in assay [2], more than 1 µM; in assay [3], more than 1 µM; in assay [4], more than 1 µM; in assay [5], more than 1 µM; on Proline--tRNA ligase, more than 2.5 µM. Besides, the IC50 on Lysine--tRNA ligase is more than 2.5 µM.

As to `Cc1ccc(-c2cc3c(SCC(=O)Nc4cc(C(F)(F)F)ccc4Cl)nccn3n2)cc1`, the concentration for half-maximal inhibition (IC50) in assay [1] was more than 1 µM; in assay [2], more than 1 µM; in assay [3] it was more than 1 µM; in assay [4], more than 1 µM; in assay [5], more than 1 µM; at Proline--tRNA ligase, more than 2.5 µM. Besides, the IC50 on Lysine--tRNA ligase is more than 2.5 µM.

In the case of `COc1ccc(C(=O)Nc2nonc2-c2ccc(OC)c(OC)c2)cc1Cl`, the IC50 in assay [1] was more than 1 µM; in assay [2] it was more than 1 µM; in assay [3], more than 1 µM; in assay [4] it was more than 1 µM; in assay [5] it was more than 1 µM; on Proline--tRNA ligase, more than 2.5 µM. For the same compound, the IC50 at Lysine--tRNA ligase is more than 2.5 µM.

On to `COc1cc(C(=O)ON=C(N)Cc2cccc3ccccc23)cc(OC)c1OC`, for which the IC50 in assay [1] is more than 1 µM; in assay [2] it was more than 1 µM; in assay [3] it was more than 1 µM; in assay [4], more than 1 µM; in assay [5], more than 1 µM; at Proline--tRNA ligase, more than 2.5 µM. The IC50 on Lysine--tRNA ligase was more than 2.5 µM.

Turning to `CCCCCCC(O)(c1ccc(F)cc1)C(CN1CCOCC1)c1ccccc1` (stereo not drawn), the IC50 is more than 1 µM in assay [1]; more than 1 µM in assay [2]; more than 1 µM in assay [3]; more than 1 µM in assay [4]; more than 1 µM in assay [5]; more than 2.5 µM at Proline--tRNA ligase. For the same compound, the IC50 on Lysine--tRNA ligase is more than 2.5 µM.

On to `CCOc1ccc2nc(C)cc(Nc3ccc(N(C)C)cc3)c2c1`, for which the IC50 was more than 1 µM in assay [1]; more than 1 µM in assay [2]; more than 1 µM in assay [3]; more than 1 µM in assay [4]; more than 1 µM in assay [5]; more than 2.5 µM on Proline--tRNA ligase. Moreover, the IC50 at Lysine--tRNA ligase is more than 2.5 µM.

These data come from ChEMBL document CHEMBL3301562, “MMV Box screening against Plasmodium falciparum protein kinases and aminoacyl tRNA synthetases”.
